From publication PMC10339456, “Exploring the 5-Substituted 2-Aminobenzothiazole-Based DNA Gyrase B Inhibitors Active against ESKAPE Pathogens” (ACS Omega, 2023)
Where two headings read alike, the source gives them in different places.

Key:
[1] = target: T1, E. coli gyrase (Escherichia coli, UniProt P0AES6); parameters: method as in PMID 33524686; details: supercoiling; compound previously prepared and tested; cited from earlier work
T1 construct: purchased Inspiralis Limited, Norwich, UK

[2] = target: T2, E. coli Topo IV (Escherichia coli, UniProt P20083); parameters: method as in PMID 33524686; details: relaxation; compound previously prepared and tested; cited from earlier work
T2 construct: purchased Inspiralis Limited, Norwich, UK

[3] = tested on: S. aureus ATCC29213; parameters: method as in PMID 33524686; details: cited from earlier work
[4] = tested on: S. aureus (MRSA) ATCC43300; parameters: method as in PMID 33524686; details: cited from earlier work
[5] = tested on: E. coli ATCC25922; parameters: method as in PMID 33524686; details: cited from earlier work
[6] = tested on: K. pneumoniae ATCC10031; parameters: method as in PMID 33524686; details: cited from earlier work
[7] = tested on: A. baumannii ATCC17978; parameters: method as in PMID 33524686; details: cited from earlier work
[8] = tested on: P. aeruginosa ATCC27853; parameters: method as in PMID 33524686; details: cited from earlier work
[9] = tested on: Gram-negative strains; parameters: method as in PMID 33524686; details: cited from earlier work
[10] = target: T1, E. coli gyrase; experiment: DNA gyrase supercoiling assay (Inspiralis kit); assay type: biochemical; details: mean ± SD of three independent experiments
Description: (§1) Compounds B, C, D, and E were evaluated against DNA gyrase from E. coli supercoiling and against Topo IV in relaxation assay. The results are presented in Table 1 and Figure S5 as concentrations of compounds that inhibit the enzyme activity by 50% (IC50 values). […] Compounds B, C, D, and E were tested for antibacterial activity against Gram-positive and Gram-negative bacteria, including ESKAPE pathogens.
(§2) Commercially available assay kits (Inspiralis Limited, Norwich, UK) were used for the determination of IC50 values for test compounds for inhibition of DNA gyrase supercoiling and Topo IV and TopoIIα relaxation. Assays were performed according to previously reported procedures.[25] For details on enzyme assays, see the Supporting Information.

[11] = target: T2, E. coli Topo IV; experiment: Topo IV relaxation assay (Inspiralis kit); assay type: biochemical
Description: as §1, §2

[12] = tested on: A. baumannii ATCC17978; experiment: MIC, broth microdilution (CLSI); assay type: cell-based; details: Acinetobacter baumannii
Description: (§3) Antimicrobial assays (MICs) were performed by a standard serial broth microdilution method. For details on antimicrobial assays, see the Supporting Information.

[13] = tested on: E. coli ATCC25922; experiment: MIC, broth microdilution (CLSI); assay type: cell-based; details: Escherichia coli
Description: as §3

[14] = tested on: Enterobacter cloacae ATCC13047; experiment: MIC, broth microdilution (CLSI); assay type: cell-based
Description: as §3

[15] = tested on: K. pneumoniae ATCC10031; experiment: MIC, broth microdilution (CLSI); assay type: cell-based; details: Klebsiella pneumoniae
Description: as §3

[16] = tested on: P. aeruginosa ATCC27853; experiment: MIC, broth microdilution (CLSI); assay type: cell-based; details: Pseudomonas aeruginosa
Description: as §3

[17] = tested on: S. aureus (MRSA) ATCC43300; experiment: MIC, broth microdilution (CLSI); assay type: cell-based; details: Staphylococcus aureus
Description: as §3

[18] = tested on: S. aureus ATCC29213; experiment: MIC, broth microdilution (CLSI); assay type: cell-based; details: Staphylococcus aureus
Description: as §3

[19] = tested on: Gram-negative strains; experiment: MIC, summary in text over Gram-negative strains; assay type: cell-based; details: for MIC: read-out: MIC against Gram-negative strains (no activity); for MIC range against Gram-negative strains: E. coli, A. baumannii, P. aeruginosa, and K. pneumoniae
Description: (§4) To evaluate selectivity against a related human target, compounds D and E were tested for their inhibitory activity on human topoisomerase IIα.
as §3

[20] = target: T3, human topoisomerase IIα (Homo sapiens, UniProt P11388); experiment: Human topoisomerase IIα relaxation assay (selectivity); assay type: biochemical; details: read-out: enzyme residual activity human topoisomerase IIα
T3 construct: purchased Inspiralis Limited, Norwich, UK
Description: as §4, §2

[21] = tested on: E. faecium ATCC700221; experiment: MIC, broth microdilution (CLSI); assay type: cell-based; details: Enterococcus faecium
Description: as §3

[22] = tested on: S. aureus (VISA) ATCC700699; experiment: MIC, broth microdilution (CLSI); assay type: cell-based; details: Staphylococcus aureus
Description: as §3

[23] = tested on: Gram-positives S. aureus, MRSA, VISA, and E. faecium; experiment: MIC, summary over Gram-positive strains; assay type: cell-based; details: most strains
Description: as §4, §3

[24] = mean ± SD of three independent experiments, read-out: IC50 E. coli Topo IV

T2 sequence (P20083 whole entry): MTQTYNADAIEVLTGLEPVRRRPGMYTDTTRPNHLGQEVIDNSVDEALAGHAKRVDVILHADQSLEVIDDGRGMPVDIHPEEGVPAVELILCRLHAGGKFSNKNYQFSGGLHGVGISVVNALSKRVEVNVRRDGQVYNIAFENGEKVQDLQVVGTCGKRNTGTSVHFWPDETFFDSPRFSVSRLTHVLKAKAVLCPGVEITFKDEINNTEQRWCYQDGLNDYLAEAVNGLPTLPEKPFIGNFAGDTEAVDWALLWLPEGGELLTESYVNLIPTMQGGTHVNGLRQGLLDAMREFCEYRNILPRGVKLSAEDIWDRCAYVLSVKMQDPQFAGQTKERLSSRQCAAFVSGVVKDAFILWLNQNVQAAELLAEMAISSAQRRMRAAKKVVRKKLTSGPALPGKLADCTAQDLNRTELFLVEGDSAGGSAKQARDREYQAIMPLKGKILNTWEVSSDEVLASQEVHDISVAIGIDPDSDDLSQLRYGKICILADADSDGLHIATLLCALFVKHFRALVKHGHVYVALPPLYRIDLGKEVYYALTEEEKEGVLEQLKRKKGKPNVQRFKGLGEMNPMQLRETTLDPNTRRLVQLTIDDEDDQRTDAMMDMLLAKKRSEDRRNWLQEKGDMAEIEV
T2 sequence (P0AFI2 whole entry, further chain): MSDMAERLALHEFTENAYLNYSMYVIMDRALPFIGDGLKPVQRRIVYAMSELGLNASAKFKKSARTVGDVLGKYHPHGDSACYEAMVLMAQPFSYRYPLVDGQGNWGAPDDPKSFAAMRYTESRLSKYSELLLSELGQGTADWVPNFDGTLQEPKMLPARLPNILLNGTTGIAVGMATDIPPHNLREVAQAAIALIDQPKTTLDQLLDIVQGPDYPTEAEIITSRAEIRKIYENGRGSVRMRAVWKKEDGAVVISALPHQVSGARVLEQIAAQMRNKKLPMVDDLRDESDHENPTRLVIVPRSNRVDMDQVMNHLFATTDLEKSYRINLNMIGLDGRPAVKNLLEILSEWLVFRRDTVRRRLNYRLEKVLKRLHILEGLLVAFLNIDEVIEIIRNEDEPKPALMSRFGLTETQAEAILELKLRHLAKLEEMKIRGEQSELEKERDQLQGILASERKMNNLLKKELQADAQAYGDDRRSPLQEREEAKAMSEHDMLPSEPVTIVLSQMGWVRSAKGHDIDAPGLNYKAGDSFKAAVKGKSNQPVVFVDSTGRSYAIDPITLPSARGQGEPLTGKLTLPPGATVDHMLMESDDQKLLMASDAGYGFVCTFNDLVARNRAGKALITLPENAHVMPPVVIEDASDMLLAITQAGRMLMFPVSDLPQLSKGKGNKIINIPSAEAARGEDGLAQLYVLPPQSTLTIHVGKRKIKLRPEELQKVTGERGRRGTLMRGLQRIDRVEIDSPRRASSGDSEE
T3 sequence (P11388 whole entry): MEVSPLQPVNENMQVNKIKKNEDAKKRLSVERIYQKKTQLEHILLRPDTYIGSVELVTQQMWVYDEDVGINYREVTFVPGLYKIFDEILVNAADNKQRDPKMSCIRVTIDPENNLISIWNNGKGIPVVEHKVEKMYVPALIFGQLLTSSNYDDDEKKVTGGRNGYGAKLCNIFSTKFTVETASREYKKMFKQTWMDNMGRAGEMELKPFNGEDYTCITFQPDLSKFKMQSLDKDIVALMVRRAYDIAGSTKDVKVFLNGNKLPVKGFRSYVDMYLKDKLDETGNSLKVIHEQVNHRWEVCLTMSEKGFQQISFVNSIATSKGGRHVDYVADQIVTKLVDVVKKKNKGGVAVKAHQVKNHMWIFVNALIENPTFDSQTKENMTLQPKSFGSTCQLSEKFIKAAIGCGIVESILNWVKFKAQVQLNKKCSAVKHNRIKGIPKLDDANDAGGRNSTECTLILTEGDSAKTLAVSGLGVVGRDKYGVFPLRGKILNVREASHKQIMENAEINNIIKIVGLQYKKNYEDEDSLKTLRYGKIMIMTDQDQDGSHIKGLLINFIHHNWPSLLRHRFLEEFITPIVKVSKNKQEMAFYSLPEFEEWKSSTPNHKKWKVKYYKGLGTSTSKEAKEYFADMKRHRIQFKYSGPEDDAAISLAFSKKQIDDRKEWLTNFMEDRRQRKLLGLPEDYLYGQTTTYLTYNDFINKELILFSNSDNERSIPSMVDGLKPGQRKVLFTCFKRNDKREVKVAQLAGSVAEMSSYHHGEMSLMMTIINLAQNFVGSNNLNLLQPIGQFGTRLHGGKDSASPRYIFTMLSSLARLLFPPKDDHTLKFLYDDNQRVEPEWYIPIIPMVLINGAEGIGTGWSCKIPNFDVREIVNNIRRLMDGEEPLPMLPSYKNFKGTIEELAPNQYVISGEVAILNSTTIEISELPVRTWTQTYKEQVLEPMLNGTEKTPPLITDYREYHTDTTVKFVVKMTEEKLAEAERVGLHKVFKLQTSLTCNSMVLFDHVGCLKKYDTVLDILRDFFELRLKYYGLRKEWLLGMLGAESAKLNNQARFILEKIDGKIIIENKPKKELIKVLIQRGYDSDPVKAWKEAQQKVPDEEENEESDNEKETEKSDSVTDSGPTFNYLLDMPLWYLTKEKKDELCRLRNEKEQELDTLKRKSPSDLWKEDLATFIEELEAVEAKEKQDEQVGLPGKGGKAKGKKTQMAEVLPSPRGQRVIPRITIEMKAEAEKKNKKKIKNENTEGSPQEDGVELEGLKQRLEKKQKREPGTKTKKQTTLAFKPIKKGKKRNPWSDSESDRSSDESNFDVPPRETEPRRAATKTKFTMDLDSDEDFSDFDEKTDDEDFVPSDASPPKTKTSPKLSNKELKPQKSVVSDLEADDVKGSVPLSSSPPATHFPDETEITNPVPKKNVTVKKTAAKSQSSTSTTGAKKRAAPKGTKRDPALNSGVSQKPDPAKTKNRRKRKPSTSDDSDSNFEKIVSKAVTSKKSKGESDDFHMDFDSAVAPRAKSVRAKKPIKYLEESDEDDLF

Row | SMILES | IC50 [10] | IC50 [11, 24] | MIC ([12]; first value of cell) | MIC ([12]; second value of cell) | MIC ([13]; first value of cell) | MIC ([13]; second value of cell) | MIC ([14]; first value of cell) | MIC ([14]; second value of cell) | MIC ([15]; first value of cell) | MIC ([15]; second value of cell) | MIC ([16]; first value of cell) | MIC ([16]; second value of cell) | MIC ([17]; first value of cell) | MIC ([17]; second value of cell) | MIC ([18]; first value of cell) | MIC ([18]; second value of cell) | MIC [19] | remaining activity at 100 µM [20] | MIC ([21]; first value of cell) | MIC ([21]; second value of cell) | further results
1 | Cc1[nH]c(C(=O)Nc2nc3cc(O)c(C(=O)O)cc3s2)c(Cl)c1Cl [Compound A] |  |  |  |  |  |  |  |  |  |  |  |  |  |  |  |  |  |  |  |  | IC50 [1]: < 10 nM; IC50 [2]: 95 nM; MIC S. aureus ATCC29213 ([3]; first value of cell): 16 µg/mL; MIC S. aureus ATCC29213 ([3]; second value of cell): 41 µM; MIC S. aureus (MRSA) ATCC43300 ([4]; first value of cell): 4 µg/mL; MIC S. aureus (MRSA) ATCC43300 ([4]; second value of cell): 10 µM; MIC E. coli ATCC25922 ([5]; first value of cell): > 64 µg/mL; MIC E. coli ATCC25922 ([5]; second value of cell): > 166 µM; MIC K. pneumoniae ATCC10031 ([6]; first value of cell): 8 µg/mL; MIC K. pneumoniae ATCC10031 ([6]; second value of cell): 21 µM; MIC A. baumannii ATCC17978 ([7]; first value of cell): > 64 µg/mL; MIC A. baumannii ATCC17978 ([7]; second value of cell): > 166 µM; MIC P. aeruginosa ATCC27853 ([8]; first value of cell): > 64 µg/mL; MIC P. aeruginosa ATCC27853 ([8]; second value of cell): > 166 µM; MIC against Gram-negative bacterial strains (inactive) [9]: > 64 µg/mL
2 | Cc1[nH]c(C(=O)Nc2nc3c(C)c(F)c(C(=O)O)cc3s2)c(Cl)c1Cl [Compound B] | 40 nM | 2000 ± 900 nM | > 64 µg/mL | > 159 µM | > 64 µg/mL | > 159 µM | > 64 µg/mL | > 159 µM | > 64 µg/mL | > 159 µM | > 64 µg/mL | > 159 µM | 0.25 µg/mL | 0.6 µM | 0.5 µg/mL | 1.2 µM | > 64 µg/mL |  |  |  | 
3 | CC(=O)N(Cc1ccccc1)c1cc2nc(NC(=O)c3[nH]c(C)c(Cl)c3Cl)sc2cc1C(=O)O [Compound C] | 71 nM |  | > 64 µg/mL | > 124 µM | > 64 µg/mL | > 124 µM | > 64 µg/mL | > 124 µM | 64 µg/mL | 124 µM | > 64 µg/mL | > 124 µM | 8 µg/mL | 16 µM | 8 µg/mL | 16 µM | > 64 µg/mL |  |  |  | IC50 ([11]; E. coli, read-out: IC50 Topo IV): 4000 nM
4 | Cc1[nH]c(C(=O)Nc2nc3cc(NCc4ccccc4)c(C(=O)O)cc3s2)c(Cl)c1Cl [Compound D] | < 10 nM | 293 ± 155 nM | 8 µg/mL | 17 µM | 16 µg/mL | 34 µM | > 64 µg/mL | > 135 µM | 4 µg/mL | 8.4 µM | 8 µg/mL | 17 µM | < 0.03 µg/mL | < 0.07 µM | < 0.03 µg/mL | < 0.07 µM |  | 100% | < 0.13 µg/mL | < 0.26 µM | MIC ([22]; first value of cell): < 0.03 µg/mL; MIC ([22]; second value of cell): < 0.07 µM; MIC [23]: < 0.03 µg/mL; MIC range against Gram-negative strains [19]: 4 to 16 µg/mL
5 | COCCCNc1cc2nc(NC(=O)c3[nH]c(C)c(Cl)c3Cl)sc2cc1C(=O)O [Compound E] | < 10 nM | 210 nM | 4 µg/mL | 9 µM | 8 µg/mL | 18 µM | > 64 µg/mL | > 140 µM | 4 µg/mL | 9 µM | 16 µg/mL | 35 µM | < 0.03 µg/mL | < 0.07 µM | < 0.03 µg/mL | < 0.07 µM |  | 55% | < 0.06 µg/mL | < 0.14 µM | MIC ([22]; first value of cell): < 0.03 µg/mL; MIC ([22]; second value of cell): < 0.07 µM; MIC [23]: < 0.03 µg/mL; MIC range against Gram-negative strains [19]: 4 to 16 µg/mL
